Results reported in ChEMBL document CHEMBL4507262, “Data for DCP probe A-1596586” (2021).

Columns and labels:
[1] = target: Acetylcholinesterase (Homo sapiens) (UniProt P22303); experiment: Acetylcholinesterase (h) Eurofins-Cerep enzyme and uptake assay; details: Compound concentration 10.0 uM
[2] = target: GABA-A receptor; anion channel (Rattus norvegicus) (UniProt O09028+P15431+P18506+P18508+P19969+P20236+P23574+P23576+P28471+P28473+P30191+P62813+P63079+P63138+Q91ZM7+Q9ES14); experiment: BZD (central) Eurofins-Cerep binding assay; assay type: protein-complex assay; set-up: ligand concentration 0.4 nM; details: filed as agonist, Compound concentration 10.0 uM
[3] = target: B2 bradykinin receptor (Homo sapiens) (UniProt P30411); experiment: B2 (h) Eurofins-Cerep binding assay; set-up: ligand concentration 0.3 nM; details: filed as agonist, Compound concentration 10.0 uM
[4] = target: Cholecystokinin receptor type A (Homo sapiens) (UniProt P32238); experiment: CCK1 (CCKA) (h) Eurofins-Cerep binding assay; details: filed as agonist, Compound concentration 10.0 uM
[5] = target: Delta-type opioid receptor (Homo sapiens) (UniProt P41143); experiment: delta (DOP) (h) Eurofins-Cerep binding assay; set-up: ligand concentration 0.5 nM; details: filed as agonist, Compound concentration 10.0 uM
[6] = target: Kappa-type opioid receptor (Homo sapiens) (UniProt P41145); experiment: kappa (h) (KOP) Eurofins-Cerep binding assay; set-up: ligand concentration 0.5 nM; details: filed as agonist, Compound concentration 10.0 uM
[7] = target: Peroxisome proliferator-activated receptor gamma (Homo sapiens) (UniProt P37231); experiment: PPARgamma (h) Eurofins-Cerep binding assay; set-up: ligand concentration 5 nM; details: filed as agonist, Compound concentration 10.0 uM
[8] = target: Prostaglandin E2 receptor EP2 subtype (Homo sapiens) (UniProt P43116); experiment: EP2 (h) Eurofins-Cerep binding assay; set-up: ligand concentration 3 nM; details: filed as agonist, Compound concentration 10.0 uM
[9] = system: Tyrosine-protein kinase ABL1 (Homo sapiens), P00519 [Q252H]; details: Compound concentration 1000.0 nM
[10] = target: Activin receptor type-2A (Homo sapiens) (UniProt P27037); details: Compound concentration 1000.0 nM
[11] = target: Aurora kinase B (Homo sapiens) (UniProt Q96GD4); details: Compound concentration 1000.0 nM
[12] = target: Cyclin-dependent kinase-like 1 (Homo sapiens) (UniProt Q00532); details: Compound concentration 1000.0 nM
[13] = target: Dual specificity protein kinase CLK2 (Homo sapiens) (UniProt P49760); details: Compound concentration 1000.0 nM
[14] = target: Eukaryotic translation initiation factor 2-alpha kinase 1 (Homo sapiens) (UniProt Q9BQI3); details: Compound concentration 1000.0 nM
[15] = target: Fibroblast growth factor receptor 3 (Homo sapiens) (UniProt P22607); details: Compound concentration 1000.0 nM
[16] = system: Receptor-type tyrosine-protein kinase FLT3 (Homo sapiens), P36888 [D835Y]; details: Compound concentration 1000.0 nM
[17] = target: Tyrosine-protein kinase Fyn (Homo sapiens) (UniProt P06241); details: Compound concentration 1000.0 nM
[18] = target: Tyrosine-protein kinase JAK1 (Homo sapiens) (UniProt P23458); details: Compound concentration 1000.0 nM
[19] = target: Leucine-rich repeat serine/threonine-protein kinase 2 (Homo sapiens) (UniProt Q5S007); details: Compound concentration 1000.0 nM
[20] = target: MAP kinase-activated protein kinase 5 (Homo sapiens) (UniProt Q8IW41); details: Compound concentration 1000.0 nM
[21] = target: Dual specificity mitogen-activated protein kinase kinase 1 (Homo sapiens) (UniProt Q02750); details: Compound concentration 1000.0 nM
[22] = target: Mitogen-activated protein kinase kinase kinase 9 (Homo sapiens) (UniProt P80192); details: Compound concentration 1000.0 nM
[23] = target: Myosin light chain kinase, smooth muscle (Homo sapiens) (UniProt Q15746); details: Compound concentration 1000.0 nM
[24] = target: Myosin-IIIb (Homo sapiens) (UniProt Q8WXR4); details: Compound concentration 1000.0 nM
[25] = target: Serine/threonine-protein kinase Nek1 (Homo sapiens) (UniProt Q96PY6); details: Compound concentration 1000.0 nM
[26] = target: Serine/threonine-protein kinase Nek9 (Homo sapiens) (UniProt Q8TD19); details: Compound concentration 1000.0 nM
[27] = target: Mitogen-activated protein kinase 13 (Homo sapiens) (UniProt O15264); details: Compound concentration 1000.0 nM
[28] = target: Serine/threonine-protein kinase PAK 1 (Homo sapiens) (UniProt Q13153); details: Compound concentration 1000.0 nM
[29] = target: Phosphatidylinositol 4,5-bisphosphate 3-kinase catalytic subunit alpha isoform (Homo sapiens) (UniProt P42336); details: Compound concentration 1000.0 nM
[30] = system: Phosphatidylinositol 4,5-bisphosphate 3-kinase catalytic subunit alpha isoform (Homo sapiens), P42336 [E545A]; details: Compound concentration 1000.0 nM
[31] = system: Phosphatidylinositol 4,5-bisphosphate 3-kinase catalytic subunit alpha isoform (Homo sapiens), P42336 [M1043I]; details: Compound concentration 1000.0 nM
[32] = target: Phosphatidylinositol 4,5-bisphosphate 3-kinase catalytic subunit delta isoform (Homo sapiens) (UniProt O00329); details: Compound concentration 1000.0 nM
[33] = target: Serine/threonine-protein kinase pim-3 (Homo sapiens) (UniProt Q86V86); details: Compound concentration 1000.0 nM
[34] = target: Serine/threonine-protein kinase N1 (Homo sapiens) (UniProt Q16512); details: Compound concentration 1000.0 nM
[35] = target: Protein kinase C eta type (Homo sapiens) (UniProt P24723); details: Compound concentration 1000.0 nM
[36] = target: Serine/threonine-protein kinase D3 (Homo sapiens) (UniProt O94806); details: Compound concentration 1000.0 nM
[37] = target: cGMP-dependent protein kinase 1 (Homo sapiens) (UniProt Q13976); details: Compound concentration 1000.0 nM
[38] = target: cGMP-dependent protein kinase 2 (Homo sapiens) (UniProt Q13237); details: Compound concentration 1000.0 nM
[39] = system: Proto-oncogene tyrosine-protein kinase receptor Ret (Homo sapiens), P07949 [V804L]; details: Compound concentration 1000.0 nM
[40] = target: Ribosomal protein S6 kinase alpha-1 (Homo sapiens) (UniProt Q15418); details: Compound concentration 1000.0 nM
[41] = target: Serine/threonine-protein kinase SIK2 (Homo sapiens) (UniProt Q9H0K1); details: Compound concentration 1000.0 nM
[42] = target: STE20-like serine/threonine-protein kinase (Homo sapiens) (UniProt Q9H2G2); details: Compound concentration 1000.0 nM
[43] = target: Mu-type opioid receptor (Homo sapiens) (UniProt P35372); details: Compound concentration 10.0 uM
Rattus norvegicus = species: Rattus norvegicus; details: Compound concentration 10.0 uM

Sequence of Kappa-type opioid receptor (Homo sapiens) (P41145 whole entry): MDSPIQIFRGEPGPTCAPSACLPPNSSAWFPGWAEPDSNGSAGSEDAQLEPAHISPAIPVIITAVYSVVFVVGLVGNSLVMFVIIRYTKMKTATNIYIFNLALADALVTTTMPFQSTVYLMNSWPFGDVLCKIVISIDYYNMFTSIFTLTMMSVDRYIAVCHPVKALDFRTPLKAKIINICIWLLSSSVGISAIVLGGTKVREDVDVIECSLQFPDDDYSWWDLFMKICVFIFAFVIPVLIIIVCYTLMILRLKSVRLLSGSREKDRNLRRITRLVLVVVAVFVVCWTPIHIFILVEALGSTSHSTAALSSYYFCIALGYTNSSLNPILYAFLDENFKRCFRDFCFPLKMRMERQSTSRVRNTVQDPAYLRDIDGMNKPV
Sequence of cGMP-dependent protein kinase 2 (Homo sapiens) (Q13237 whole entry): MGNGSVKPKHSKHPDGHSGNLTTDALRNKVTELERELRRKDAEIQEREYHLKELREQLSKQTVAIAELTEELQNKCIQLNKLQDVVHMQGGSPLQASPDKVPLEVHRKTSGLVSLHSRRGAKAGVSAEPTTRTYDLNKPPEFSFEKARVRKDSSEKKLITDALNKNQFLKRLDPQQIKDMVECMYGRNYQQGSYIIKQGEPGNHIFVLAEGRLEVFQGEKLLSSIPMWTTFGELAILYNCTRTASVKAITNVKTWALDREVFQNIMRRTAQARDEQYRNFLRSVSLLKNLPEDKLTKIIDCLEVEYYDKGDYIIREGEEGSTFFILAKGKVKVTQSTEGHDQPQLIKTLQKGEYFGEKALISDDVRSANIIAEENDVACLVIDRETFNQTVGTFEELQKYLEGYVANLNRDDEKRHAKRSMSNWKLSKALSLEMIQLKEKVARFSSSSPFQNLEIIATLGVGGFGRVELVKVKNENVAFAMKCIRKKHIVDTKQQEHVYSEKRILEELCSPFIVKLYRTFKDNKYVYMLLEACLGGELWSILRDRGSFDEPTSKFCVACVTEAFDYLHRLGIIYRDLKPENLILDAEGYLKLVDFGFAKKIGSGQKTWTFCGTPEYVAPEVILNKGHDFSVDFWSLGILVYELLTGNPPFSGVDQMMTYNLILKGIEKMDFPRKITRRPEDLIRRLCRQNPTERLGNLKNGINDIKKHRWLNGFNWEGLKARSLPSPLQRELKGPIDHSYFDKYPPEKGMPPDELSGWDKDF
Sequence of Dual specificity protein kinase CLK2 (Homo sapiens) (P49760 whole entry, looked up): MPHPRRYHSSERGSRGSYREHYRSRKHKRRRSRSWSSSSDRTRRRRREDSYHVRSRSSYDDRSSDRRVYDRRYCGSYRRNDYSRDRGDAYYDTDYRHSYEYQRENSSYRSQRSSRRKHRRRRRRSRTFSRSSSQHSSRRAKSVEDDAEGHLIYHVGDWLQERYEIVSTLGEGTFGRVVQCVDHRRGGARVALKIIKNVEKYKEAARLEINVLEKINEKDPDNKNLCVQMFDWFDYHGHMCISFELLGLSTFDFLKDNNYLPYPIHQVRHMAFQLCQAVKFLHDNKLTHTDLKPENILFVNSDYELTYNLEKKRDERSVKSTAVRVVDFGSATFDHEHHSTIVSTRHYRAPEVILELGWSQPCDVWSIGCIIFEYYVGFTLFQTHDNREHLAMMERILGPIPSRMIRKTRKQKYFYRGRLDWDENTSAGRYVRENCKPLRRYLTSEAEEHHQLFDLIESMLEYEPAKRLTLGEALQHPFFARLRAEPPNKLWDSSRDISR
Sequence of Protein kinase C eta type (Homo sapiens) (P24723 whole entry): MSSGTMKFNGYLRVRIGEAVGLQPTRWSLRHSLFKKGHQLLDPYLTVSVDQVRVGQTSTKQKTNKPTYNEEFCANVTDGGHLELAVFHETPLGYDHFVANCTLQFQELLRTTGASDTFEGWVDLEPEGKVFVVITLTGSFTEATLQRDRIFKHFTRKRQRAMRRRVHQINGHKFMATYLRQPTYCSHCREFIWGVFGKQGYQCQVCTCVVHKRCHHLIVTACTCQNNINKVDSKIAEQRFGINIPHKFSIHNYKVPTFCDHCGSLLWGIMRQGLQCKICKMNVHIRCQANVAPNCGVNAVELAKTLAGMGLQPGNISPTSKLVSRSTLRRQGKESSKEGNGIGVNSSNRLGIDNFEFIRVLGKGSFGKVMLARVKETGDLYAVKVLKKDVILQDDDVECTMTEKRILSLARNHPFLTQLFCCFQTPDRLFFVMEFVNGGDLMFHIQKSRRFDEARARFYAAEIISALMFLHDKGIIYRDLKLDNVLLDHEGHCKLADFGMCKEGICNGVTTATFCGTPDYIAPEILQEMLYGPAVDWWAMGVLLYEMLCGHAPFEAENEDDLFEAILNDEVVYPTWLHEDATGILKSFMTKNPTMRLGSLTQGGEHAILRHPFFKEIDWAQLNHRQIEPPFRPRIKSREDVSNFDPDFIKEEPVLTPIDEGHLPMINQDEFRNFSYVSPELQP
Sequence of Serine/threonine-protein kinase Nek9 (Homo sapiens) (Q8TD19 whole entry): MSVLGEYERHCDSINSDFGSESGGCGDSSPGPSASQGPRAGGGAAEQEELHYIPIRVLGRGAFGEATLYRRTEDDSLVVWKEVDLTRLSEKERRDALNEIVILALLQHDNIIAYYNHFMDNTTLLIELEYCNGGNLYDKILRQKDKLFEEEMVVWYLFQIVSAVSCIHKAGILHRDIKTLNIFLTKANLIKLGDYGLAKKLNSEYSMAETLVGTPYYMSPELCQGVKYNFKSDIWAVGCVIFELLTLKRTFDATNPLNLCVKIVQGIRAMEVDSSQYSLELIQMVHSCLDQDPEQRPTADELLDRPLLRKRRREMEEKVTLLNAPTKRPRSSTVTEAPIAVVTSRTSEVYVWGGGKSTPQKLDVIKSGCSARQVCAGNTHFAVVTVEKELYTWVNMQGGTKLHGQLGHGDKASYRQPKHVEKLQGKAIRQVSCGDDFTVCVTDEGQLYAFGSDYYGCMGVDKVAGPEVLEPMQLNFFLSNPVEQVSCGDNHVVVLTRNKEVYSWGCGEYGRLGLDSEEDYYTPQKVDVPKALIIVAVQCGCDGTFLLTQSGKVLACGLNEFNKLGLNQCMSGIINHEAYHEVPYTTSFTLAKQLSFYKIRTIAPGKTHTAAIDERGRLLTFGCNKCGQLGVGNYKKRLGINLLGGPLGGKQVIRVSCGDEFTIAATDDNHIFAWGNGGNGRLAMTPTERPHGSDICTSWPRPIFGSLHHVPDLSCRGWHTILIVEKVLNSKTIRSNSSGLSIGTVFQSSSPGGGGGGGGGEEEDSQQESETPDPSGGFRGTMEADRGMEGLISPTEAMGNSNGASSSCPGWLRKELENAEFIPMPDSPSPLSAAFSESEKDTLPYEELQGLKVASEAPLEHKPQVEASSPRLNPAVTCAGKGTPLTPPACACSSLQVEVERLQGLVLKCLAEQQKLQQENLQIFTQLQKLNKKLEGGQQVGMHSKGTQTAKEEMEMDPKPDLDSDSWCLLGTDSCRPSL
Sequence of Serine/threonine-protein kinase SIK2 (Homo sapiens) (Q9H0K1 whole entry, looked up): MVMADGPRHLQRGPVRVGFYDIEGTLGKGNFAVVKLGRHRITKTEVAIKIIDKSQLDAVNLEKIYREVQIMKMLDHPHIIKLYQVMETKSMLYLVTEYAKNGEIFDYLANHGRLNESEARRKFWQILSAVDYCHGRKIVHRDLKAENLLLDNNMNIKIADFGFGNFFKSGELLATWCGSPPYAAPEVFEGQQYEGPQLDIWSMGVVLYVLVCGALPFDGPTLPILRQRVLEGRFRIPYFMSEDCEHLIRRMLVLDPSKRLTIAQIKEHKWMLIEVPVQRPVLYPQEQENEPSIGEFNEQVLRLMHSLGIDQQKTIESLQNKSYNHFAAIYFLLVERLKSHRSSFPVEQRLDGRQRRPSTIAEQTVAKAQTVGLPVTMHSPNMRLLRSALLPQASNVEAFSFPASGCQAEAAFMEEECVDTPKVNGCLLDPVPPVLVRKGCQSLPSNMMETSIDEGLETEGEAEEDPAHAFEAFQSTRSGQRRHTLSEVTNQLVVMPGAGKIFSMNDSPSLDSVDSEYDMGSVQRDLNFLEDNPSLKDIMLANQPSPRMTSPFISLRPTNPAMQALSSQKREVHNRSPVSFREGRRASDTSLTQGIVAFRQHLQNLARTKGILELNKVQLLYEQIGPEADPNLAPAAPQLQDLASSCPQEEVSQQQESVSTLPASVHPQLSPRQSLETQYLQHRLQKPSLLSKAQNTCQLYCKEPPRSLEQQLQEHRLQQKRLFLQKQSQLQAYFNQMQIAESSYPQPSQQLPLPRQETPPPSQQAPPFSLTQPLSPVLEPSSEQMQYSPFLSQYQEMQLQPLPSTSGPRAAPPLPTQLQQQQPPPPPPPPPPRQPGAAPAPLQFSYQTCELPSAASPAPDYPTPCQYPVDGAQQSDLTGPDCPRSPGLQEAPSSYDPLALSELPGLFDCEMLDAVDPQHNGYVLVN
Sequence of Mu-type opioid receptor (Homo sapiens) (P35372 whole entry): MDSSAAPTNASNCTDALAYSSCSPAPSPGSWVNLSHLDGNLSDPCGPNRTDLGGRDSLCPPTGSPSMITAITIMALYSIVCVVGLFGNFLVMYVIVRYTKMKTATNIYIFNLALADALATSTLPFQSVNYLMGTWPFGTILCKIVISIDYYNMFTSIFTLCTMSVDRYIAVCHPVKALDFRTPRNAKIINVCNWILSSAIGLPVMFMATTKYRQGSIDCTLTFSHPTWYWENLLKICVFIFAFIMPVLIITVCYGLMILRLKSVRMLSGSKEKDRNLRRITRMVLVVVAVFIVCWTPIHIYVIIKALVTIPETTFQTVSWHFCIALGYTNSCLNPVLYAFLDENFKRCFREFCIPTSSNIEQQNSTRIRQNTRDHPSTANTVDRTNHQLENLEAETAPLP

COc1ccc2c(c1)O[C@H](c1ccc(OC)c(OC)c1)C[C@@H]2NC(=O)C1(c2ccc3c(c2)OC(F)(F)O3)CC1 [A-1596584]
% Inhibition of Control Values (Mean n=2) [1]: -3.9% | % Inhibition of Control Specific Binding (Mean n=2) [2]: -49.6% | % Inhibition of Control Specific Binding (Mean n=2) [3]: -8.3% | % Inhibition of Control Specific Binding (Mean n=2) [4]: -38.6% | % Inhibition of Control Specific Binding (Mean n=2) [5]: 2.2% | % Inhibition of Control Specific Binding (Mean n=2) [6]: 44.7% | % Inhibition of Control Specific Binding (Mean n=2) [7]: 13.7% | % Inhibition of Control Specific Binding (Mean n=2) [8]: 13.1% | residual activity [9]: 100% | residual activity [10]: 97% | residual activity [11]: 98% | residual activity [12]: 83% | residual activity [13]: 95% | residual activity [14]: 100% | residual activity [15]: 100% | residual activity [16]: 100% | residual activity [17]: 100% | residual activity [18]: 100% | residual activity [19]: 100% | residual activity [20]: 100% | residual activity [21]: 100% | residual activity [22]: 93% | residual activity [23]: 100% | residual activity [24]: 39% | residual activity [25]: 100% | residual activity [26]: 100% | residual activity [27]: 100% | residual activity [28]: 100% | residual activity [29]: 82% | residual activity [30]: 100% | residual activity [31]: 84% | residual activity [32]: 85% | residual activity [33]: 100% | residual activity [34]: 100% | residual activity [35]: 100% | residual activity [36]: 100% | residual activity [37]: 100% | residual activity [38]: 89% | residual activity [39]: 87% | residual activity [40]: 100% | residual activity [41]: 100% | residual activity [42]: 100% | inhibition [43]: 4.18% | inhibition (Rattus norvegicus): 66.6%

COc1ccc2c(c1)O[C@@H](c1ccc(OC)c(OC)c1)C[C@H]2NC(=O)C1(c2ccc3c(c2)OC(F)(F)O3)CC1 [A-1596586]
% Inhibition of Control Values (Mean n=2) [1]: -6.2% | % Inhibition of Control Specific Binding (Mean n=2) [2]: -12.3% | % Inhibition of Control Specific Binding (Mean n=2) [3]: -13.5% | % Inhibition of Control Specific Binding (Mean n=2) [4]: -51.6% | % Inhibition of Control Specific Binding (Mean n=2) [5]: 8.8% | % Inhibition of Control Specific Binding (Mean n=2) [6]: 42.2% | % Inhibition of Control Specific Binding (Mean n=2) [7]: -5.5% | % Inhibition of Control Specific Binding (Mean n=2) [8]: 9.3% | residual activity [9]: 93% | residual activity [10]: 90% | residual activity [11]: 84% | residual activity [12]: 82% | residual activity [13]: 96% | residual activity [14]: 98% | residual activity [15]: 89% | residual activity [16]: 100% | residual activity [17]: 96% | residual activity [18]: 90% | residual activity [19]: 87% | residual activity [20]: 76% | residual activity [21]: 86% | residual activity [22]: 100% | residual activity [23]: 85% | residual activity [24]: 100% | residual activity [25]: 100% | residual activity [26]: 100% | residual activity [27]: 97% | residual activity [28]: 89% | residual activity [29]: 86% | residual activity [30]: 94% | residual activity [31]: 91% | residual activity [32]: 97% | residual activity [33]: 91% | residual activity [34]: 96% | residual activity [35]: 96% | residual activity [36]: 97% | residual activity [37]: 100% | residual activity [38]: 96% | residual activity [39]: 95% | residual activity [40]: 98% | residual activity [41]: 95% | residual activity [42]: 100% | inhibition [43]: 6.01% | inhibition (Rattus norvegicus): 90.5%
